Laboratory results reported in patent US8273754B2, “Substituted 1H-pyrazolo[3,4-D]pyrimidine-6-amine compounds” (ArQule, Inc., priority 2008, dated 2012).
Like-named read-outs stand apart in the source and are kept apart here.

Test system: cancer cells
Experiment: MTS cell growth inhibition assay (72 hours)
Type: cell-based
Procedure, shortened: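 Growth inhibition read as formazan absorbance at 492 nm after 4 h MTS/PMS, following 72 h compound exposure at 37 °C in 1% FBS DMEM (cells pre-seeded 18 h). IC50 = 50% absorbance reduction; inhibition graded in bands.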

[1] = Homo sapiens, DLD-1, 72 h, DLD-1 cells, read-out: DLD-1 MTS 72 hr at 10 μM
[2] = Homo sapiens, KATO III, 72 h, KATO III cells, read-out: KATO III MTS 72 hr at 10 μM
[3] = Homo sapiens, MDA-MB-231, 72 h, MDA-MB-231 cells, read-out: MDA-MB-231 MTS 72 hr at 10 μM
[4] = Homo sapiens, NCI-H1299, 72 h, NCI-H1299 cells, read-out: NCI-H1299 MTS 72 hr at 10 μM
[5] = PaCa-2, 72 h, PACA-2 cells, read-out: PACA-2 MTS 72 hr at 10 μM

Structure (SMILES) | inhibition at 10 µM [1] [%] | inhibition at 10 µM [2] [%] | inhibition at 10 µM [3] [%] | inhibition at 10 µM [4] [%] | inhibition at 10 µM [5] [%]
Nc1nc(NC2Cc3ccccc3N(S(=O)(=O)c3ccc(F)c(F)c3)C2)c2cn[nH]c2n1 (stereo not drawn) [Compound 46, N4-(1-(3,4-difluorophenylsulfonyl)-1,2,3,4-tetrahydroquinolin-3-yl)-1H-pyrazolo[3,4-d]pyrimidine-4,6-diamine] | < 50 | < 50 | < 50 | < 50 | < 50
Nc1nc(NC2Cc3ccccc3N(S(=O)(=O)c3ccc(F)cc3)C2)c2cn[nH]c2n1 (stereo not drawn) [Compound 20, N4-(1-(4-fluorophenylsulfonyl)-1,2,3,4-tetrahydroquinolin-3-yl)-1H-pyrazolo[3,4-d]pyrimidine-4,6-diamine] | < 50 | < 50 | < 50 | < 50 | < 50
COc1ccc(CN2CC(Nc3nc(N)nc4[nH]ncc34)Cc3ccccc32)cc1OCc1ccccc1 (stereo not drawn) [Compound 160, N4-{1-[3-(benzyloxy)-4-methoxybenzyl]-1,2,3,4-tetrahydroquinolin-3-yl}-1H-pyrazolo[3,4-d]pyrimidine-4,6-diamine] | > 79 | > 79 | < 50 | < 50 | > 79
Nc1nc(NC2Cc3ccccc3N(S(=O)(=O)c3cccc(Cl)c3Cl)C2)c2cn[nH]c2n1 (stereo not drawn) [Compound 57, N4-(1-(2,3-dichlorophenylsulfonyl)-1,2,3,4-tetrahydroquinolin-3-yl)-1H-pyrazolo[3,4-d]pyrimidine-4,6-diamine] | < 50 | < 50 | < 50 | < 50 | < 50
Nc1nc(NC2Cc3ccccc3N(S(=O)(=O)c3ccc(NC(=O)Nc4ccc5c(c4)Cc4ccccc4-5)cc3)C2)c2cn[nH]c2n1 (stereo not drawn) [Compound 198, 1-[4-({3-[(6-amino-1H-pyrazolo[3,4-d]pyrimidin-4-yl)amino]-3,4-dihydroquinolin-1(2H)-yl}sulfonyl)phenyl]-3-(9H-fluoren-2-yl)urea] | > 79 | > 79 | < 50 | > 79 | < 50
Nc1nc(NC2Cc3ccccc3N(Cc3ccc(OCc4ccccc4)cc3)C2)c2cn[nH]c2n1 (stereo not drawn) [Compound 155, N4-{1-[4-(benzyloxy)benzyl]-1,2,3,4-tetrahydroquinolin-3-yl}-1H-pyrazolo[3,4-d]pyrimidine-4,6-diamine] | > 79 | > 79 | > 79 | > 79 | > 79
Nc1nc(NC2CCN(S(=O)(=O)c3ccsc3)c3ccccc3C2)c2cn[nH]c2n1 (stereo not drawn) [Compound 167, N4-[1-(3-thienylsulfonyl)-2,3,4,5-tetrahydro-1H-1-benzazepin-4-yl]-1H-pyrazolo[3,4-d]pyrimidine-4,6-diamine] | < 50 | < 50 | < 50 | < 50 | < 50
Cc1ccc(Cl)c(NC(=O)Nc2cccc(S(=O)(=O)N3CC(Nc4nc(N)nc5[nH]ncc45)Cc4ccccc43)c2)c1 (stereo not drawn) [Compound 218, 1-[3-({3-[(6-amino-1H-pyrazolo[3,4-d]pyrimidin-4-yl)amino]-3,4-dihydroquinolin-1(2H)-yl}sulfonyl)phenyl]-3-(2-chloro-5-methylphenyl)urea] | > 79 | > 79 | > 79 | > 79 | > 79
CCc1ccc(S(=O)(=O)N2CC(Nc3nc(N)nc4[nH]ncc34)Cc3ccccc32)cc1 (stereo not drawn) [Compound 59, N4-(1-(4-ethylphenylsulfonyl)-1,2,3,4-tetrahydroquinolin-3-yl)-1H-pyrazolo[3,4-d]pyrimidine-4,6-diamine] | < 50 | < 50 | < 50 | < 50 | < 50
Nc1nc(NC2Cc3ccccc3N(C(=O)COc3cccc(Cl)c3)C2)c2cn[nH]c2n1 (stereo not drawn) [Compound 93, 1-(3-(6-amino-1H-pyrazolo[3,4-d]pyrimidin-4-ylamino)-3,4-dihydroquinolin-1(2H)-yl)-2-(3-chlorophenoxy)ethanone] | < 50 | < 50 | < 50 | < 50 | < 50
Nc1nc(NC2Cc3ccccc3N(S(=O)(=O)c3ccc(NC(=O)Nc4ccccc4F)cc3)C2)c2cn[nH]c2n1 (stereo not drawn) [Compound 191, 1-[4-({3-[(6-amino-1H-pyrazolo[3,4-d]pyrimidin-4-yl)amino]-3,4-dihydroquinolin-1(2H)-yl}sulfonyl)phenyl]-3-(2-fluorophenyl)urea] | < 50 | < 50 | < 50 | < 50 | < 50
Nc1nc(NC2Cc3ccccc3N(S(=O)(=O)c3ccc(NC(=O)Nc4ccc(F)c(F)c4)cc3)C2)c2cn[nH]c2n1 (stereo not drawn) [Compound 194, 1-[4-({3-[(6-amino-1H-pyrazolo[3,4-d]pyrimidin-4-yl)amino]-3,4-dihydroquinolin-1(2H)-yl}sulfonyl)phenyl]-3-(3,4-difluorophenyl)urea] | > 79 | > 79 | > 79 | > 79 | > 79
Nc1nc(NC2Cc3ccccc3N(Cc3ccc(-c4cccs4)cc3)C2)c2cn[nH]c2n1 (stereo not drawn) [Compound 136, N4-{1-[4-(2-thienyl)benzyl]-1,2,3,4-tetrahydroquinolin-3-yl}-1H-pyrazolo[3,4-d]pyrimidine-4,6-diamine] | > 79 | > 79 | < 50 | < 50 | < 50
Nc1nc(NC2CCN(S(=O)(=O)c3cc(Cl)cc(Cl)c3)c3ccccc3C2)c2cn[nH]c2n1 (stereo not drawn) [Compound 174, N4-{1-[(3,5-dichlorophenyl)sulfonyl]-2,3,4,5-tetrahydro-1H-1-benzazepin-4-yl}-1H-pyrazolo[3,4-d]pyrimidine-4,6-diamine] | 50 to 79 | 50 to 79 | < 50 | < 50 | 50 to 79
Cc1cccc(NC(=O)Nc2cccc(S(=O)(=O)N3CC(Nc4nc(N)nc5[nH]ncc45)Cc4ccccc43)c2)c1 (stereo not drawn) [Compound 205, 1-[3-({3-[(6-amino-1H-pyrazolo[3,4-d]pyrimidin-4-yl)amino]-3,4-dihydroquinolin-1(2H)-yl}sulfonyl)phenyl]-3-(3-methylphenyl)urea] | 50 to 79 | > 79 | 50 to 79 | < 50 | > 79
Cc1ccc(CNC(=O)N2CC(Nc3nc(N)nc4[nH]ncc34)Cc3ccccc32)cc1 (stereo not drawn) [Compound 110, 3-(6-amino-1H-pyrazolo[3,4-d]pyrimidin-4-ylamino)-N-(4-methylbenzyl)-3,4-dihydroquinoline-1(2H)-carboxamide] | < 50 | < 50 | < 50 | < 50 | < 50
Nc1nc(NC2Cc3ccccc3N(S(=O)(=O)c3ccc(OC(F)(F)F)cc3)C2)c2cn[nH]c2n1 (stereo not drawn) [Compound 68, N4-(1-(4-(trifluoromethoxy)phenylsulfonyl)-1,2,3,4-tetrahydroquinolin-3-yl)-1H-pyrazolo[3,4-d]pyrimidine-4,6-diamine] | < 50 | < 50 | < 50 | < 50 | < 50
Nc1nc(NC2Cc3ccccc3N(S(=O)(=O)c3cc(Cl)ccc3Cl)C2)c2cn[nH]c2n1 (stereo not drawn) [Compound 32, N4-(1-(2,5-dichlorophenylsulfonyl)-1,2,3,4-tetrahydroquinolin-3-yl)-1H-pyrazolo[3,4-d]pyrimidine-4,6-diamine] | 50 to 79 | > 79 | < 50 | < 50 | < 50
Nc1nc(NC2Cc3ccccc3N(Cc3c(F)cccc3F)C2)c2cn[nH]c2n1 (stereo not drawn) [Compound 150, N4-[1-(2,6-difluorobenzyl)-1,2,3,4-tetrahydroquinolin-3-yl]-1H-pyrazolo[3,4-d]pyrimidine-4,6-diamine] | > 79 | 50 to 79 | < 50 | < 50 | > 79
COc1ccc(CC(=O)N2CC(Nc3nc(N)nc4[nH]ncc34)Cc3ccccc32)cc1OC (stereo not drawn) [Compound 95, 1-(3-(6-amino-1H-pyrazolo[3,4-d]pyrimidin-4-ylamino)-3,4-dihydroquinolin-1(2H)-yl)-2-(3,4-dimethoxyphenyl)ethanone] | < 50 | < 50 | < 50 | < 50 | < 50
Nc1nc(NC2Cc3ccccc3N(Cc3ccccc3OCc3c(Cl)cccc3Cl)C2)c2cn[nH]c2n1 (stereo not drawn) [Compound 152, N4-(1-{2-[(2,6-dichlorobenzyl)oxy]benzyl}-1,2,3,4-tetrahydroquinolin-3-yl)-1H-pyrazolo[3,4-d]pyrimidine-4,6-diamine] | > 79 | 50 to 79 | 50 to 79 | < 50 | < 50
